# According to ChEMBL document CHEMBL3885881, “DrugMatrix”:
# Species: Rattus norvegicus
# Experiment: DrugMatrix - Regimen: Daily Repeat
# Type: toxicity, organism-based, Sprague-Dawley
# Parameters: regimen Daily Repeat, gender Male, age 6-8 weeks
# Details: in vivo, po, route oral GAVAGE, vehicle .5 % CMC; for BASOPHIL / EOSINOPHIL / ERYTHROCYTE COUNT / HEMATOCRIT / HEMOGLOBIN / LEUKOCYTE COUNT / LYMPHOCYTE / MEAN CORPUSCULAR HEMOGLOBIN / MEAN CORPUSCULAR HEMOGLOBIN CONCENTRATION / MEAN CORPUSCULAR VOLUME / MONOCYTE / NEUTROPHIL / PLATELET COUNT: tissue Blood; for ALANINE AMINOTRANSFERASE / ALBUMIN / ALKALINE PHOSPHATASE / ASPARTATE AMINOTRANSFERASE / BLOOD UREA NITROGEN / CHLORIDE / CHOLESTEROL / CREATINE PHOSPHOKINASE / CREATININE / GLUCOSE / PHOSPHORUS / POTASSIUM / SODIUM / TOTAL BILIRUBIN / TOTAL PROTEIN: tissue Plasma
# [1] = 0 mg/kg, 72 h, dose level Control, time 3 day
# [2] = 0 mg/kg, 120 h, dose level Control, time 5 day
# [3] = 59 mg/kg, 72 h, dose level Low, time 3 day
# [4] = 59 mg/kg, 120 h, dose level Low, time 5 day
compound,measurement,setting,value
CC[C@@H](CO)NCCN[C@@H](CC)CO [ETHAMBUTOL],BASOPHIL,[1],0%
same,EOSINOPHIL,[1],0.33%
same,ERYTHROCYTE COUNT,[1],6.2 x10E6/uL
same,HEMATOCRIT,[1],38.08%
same,HEMOGLOBIN,[1],14.92 G/DL
same,LEUKOCYTE COUNT,[1],11.13 x10E3/uL
same,LYMPHOCYTE,[1],76%
same,MEAN CORPUSCULAR HEMOGLOBIN,[1],24.1 pg
same,MEAN CORPUSCULAR HEMOGLOBIN CONCENTRATION,[1],39.17 G/DL
same,MEAN CORPUSCULAR VOLUME,[1],61.48 fL
same,MONOCYTE,[1],3.83%
same,NEUTROPHIL,[1],19.83%
same,PLATELET COUNT,[1],1327.5 x10E3/uL
same,ALANINE AMINOTRANSFERASE,[1],40.17 u/L
same,ALBUMIN,[1],4.07 G/DL
same,ALKALINE PHOSPHATASE,[1],372 u/L
same,ASPARTATE AMINOTRANSFERASE,[1],67.17 u/L
same,BLOOD UREA NITROGEN,[1],18.83 mg/dL
same,CHLORIDE,[1],105.17 MEQ/L
same,CHOLESTEROL,[1],78.17 mg/dL
same,CREATINE PHOSPHOKINASE,[1],149.17 u/L
same,CREATININE,[1],0.57 mg/dL
same,GLUCOSE,[1],185.17 mg/dL
same,PHOSPHORUS,[1],11.43 mg/dL
same,POTASSIUM,[1],6.78 MEQ/L
same,SODIUM,[1],152.83 MEQ/L
same,TOTAL BILIRUBIN,[1],0.4 mg/dL
same,TOTAL PROTEIN,[1],6.87 G/DL
same,BASOPHIL,[2],0%
same,EOSINOPHIL,[2],0%
same,ERYTHROCYTE COUNT,[2],6.05 x10E6/uL
same,HEMATOCRIT,[2],36.55%
same,HEMOGLOBIN,[2],14.7 G/DL
same,LEUKOCYTE COUNT,[2],11.8 x10E3/uL
same,LYMPHOCYTE,[2],86.83%
same,MEAN CORPUSCULAR HEMOGLOBIN,[2],24.37 pg
same,MEAN CORPUSCULAR HEMOGLOBIN CONCENTRATION,[2],40.32 G/DL
same,MEAN CORPUSCULAR VOLUME,[2],60.47 fL
same,MONOCYTE,[2],0.83%
same,NEUTROPHIL,[2],12.33%
same,PLATELET COUNT,[2],1177 x10E3/uL
same,ALANINE AMINOTRANSFERASE,[2],41.83 u/L
same,ALBUMIN,[2],3.75 G/DL
same,ALKALINE PHOSPHATASE,[2],377.5 u/L
same,ASPARTATE AMINOTRANSFERASE,[2],60.83 u/L
same,BLOOD UREA NITROGEN,[2],16 mg/dL
same,CHLORIDE,[2],105.67 MEQ/L
same,CHOLESTEROL,[2],67.83 mg/dL
same,CREATINE PHOSPHOKINASE,[2],120.33 u/L
same,CREATININE,[2],0.6 mg/dL
same,GLUCOSE,[2],167.67 mg/dL
same,PHOSPHORUS,[2],10.03 mg/dL
same,POTASSIUM,[2],6.68 MEQ/L
same,SODIUM,[2],150.5 MEQ/L
same,TOTAL BILIRUBIN,[2],0.57 mg/dL
same,TOTAL PROTEIN,[2],6.25 G/DL
same,BASOPHIL,[3],0%
same,EOSINOPHIL,[3],0.67%
same,ERYTHROCYTE COUNT,[3],6.09 x10E6/uL
same,HEMATOCRIT,[3],36.33%
same,HEMOGLOBIN,[3],14.2 G/DL
same,LEUKOCYTE COUNT,[3],11.65 x10E3/uL
same,LYMPHOCYTE,[3],88%
same,MEAN CORPUSCULAR HEMOGLOBIN,[3],23.7 pg
same,MEAN CORPUSCULAR HEMOGLOBIN CONCENTRATION,[3],39.55 G/DL
same,MEAN CORPUSCULAR VOLUME,[3],59.63 fL
same,MONOCYTE,[3],0.33%
same,NEUTROPHIL,[3],11%
same,PLATELET COUNT,[3],1231 x10E3/uL
same,ALANINE AMINOTRANSFERASE,[3],35.33 u/L
same,ALBUMIN,[3],3.63 G/DL
same,ALKALINE PHOSPHATASE,[3],327.67 u/L
same,ASPARTATE AMINOTRANSFERASE,[3],58.33 u/L
same,BLOOD UREA NITROGEN,[3],11.67 mg/dL
same,CHLORIDE,[3],104.33 MEQ/L
same,CHOLESTEROL,[3],68 mg/dL
same,CREATINE PHOSPHOKINASE,[3],185 u/L
same,CREATININE,[3],0.57 mg/dL
same,GLUCOSE,[3],165.33 mg/dL
same,PHOSPHORUS,[3],12.53 mg/dL
same,POTASSIUM,[3],6.5 MEQ/L
same,SODIUM,[3],149.67 MEQ/L
same,TOTAL BILIRUBIN,[3],0.27 mg/dL
same,TOTAL PROTEIN,[3],5.9 G/DL
same,BASOPHIL,[4],0%
same,EOSINOPHIL,[4],0%
same,ERYTHROCYTE COUNT,[4],6.14 x10E6/uL
same,HEMATOCRIT,[4],38.6%
same,HEMOGLOBIN,[4],15.1 G/DL
same,LEUKOCYTE COUNT,[4],11.85 x10E3/uL
same,LYMPHOCYTE,[4],89.33%
same,MEAN CORPUSCULAR HEMOGLOBIN,[4],24.7 pg
same,MEAN CORPUSCULAR HEMOGLOBIN CONCENTRATION,[4],39.2 G/DL
same,MEAN CORPUSCULAR VOLUME,[4],63.03 fL
same,MONOCYTE,[4],0.67%
same,NEUTROPHIL,[4],10%
same,PLATELET COUNT,[4],1247.67 x10E3/uL
same,ALANINE AMINOTRANSFERASE,[4],27.67 u/L
same,ALBUMIN,[4],3.57 G/DL
same,ALKALINE PHOSPHATASE,[4],273.67 u/L
same,ASPARTATE AMINOTRANSFERASE,[4],55 u/L
same,BLOOD UREA NITROGEN,[4],11.33 mg/dL
same,CHLORIDE,[4],105.67 MEQ/L
same,CHOLESTEROL,[4],89 mg/dL
same,CREATINE PHOSPHOKINASE,[4],135.33 u/L
same,CREATININE,[4],0.5 mg/dL
same,GLUCOSE,[4],157.67 mg/dL
same,PHOSPHORUS,[4],11.8 mg/dL
same,POTASSIUM,[4],6.47 MEQ/L
same,SODIUM,[4],151.33 MEQ/L
same,TOTAL BILIRUBIN,[4],0.2 mg/dL
same,TOTAL PROTEIN,[4],6 G/DL
